Measured values: ChEMBL document CHEMBL6121044, “Discovery of Novel Spirocyclic MAT2A Inhibitors Demonstrating High In Vivo Efficacy in MTAP-Null Xenograft Models” (J Med Chem, 2025)
Values after ≈ are worked out from the molar mass of the structure shown.

Assays:
[1] = biological target: T1, S-adenosylmethionine synthase isoform type-2 (Homo sapiens, UniProt P31153); assay: Inhibition of MAT2A in wild type human HCT-116 cells assessed as inhibition of PRMT5-mediated symmetric […]-arginine (SDMA) level; type: cell-based
T1 sequence (P31153 whole entry, canonical isoform): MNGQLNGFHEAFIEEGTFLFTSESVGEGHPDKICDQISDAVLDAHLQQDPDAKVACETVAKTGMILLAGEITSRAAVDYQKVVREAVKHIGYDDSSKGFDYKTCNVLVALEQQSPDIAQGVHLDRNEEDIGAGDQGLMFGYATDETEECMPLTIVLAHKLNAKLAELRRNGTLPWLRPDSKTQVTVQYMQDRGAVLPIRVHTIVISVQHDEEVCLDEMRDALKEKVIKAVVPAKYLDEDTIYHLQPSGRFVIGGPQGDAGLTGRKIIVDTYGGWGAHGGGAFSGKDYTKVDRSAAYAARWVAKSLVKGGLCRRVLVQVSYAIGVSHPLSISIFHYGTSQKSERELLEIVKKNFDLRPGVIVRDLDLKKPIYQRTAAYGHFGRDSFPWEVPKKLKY

[2] = Genotoxicity in Salmonella typhimurium TA100; type: toxicity; details: salmonella enterica subsp. enterica serovar typhimurium
[3] = Solubility of the compound in FaSSGF; type: physicochemical
[4] = Half life in male Sprague-Dawley rat at 2 mg/kg, iv measured upto 24 hrs upto 24 hrs by LC-MS/MS analysis; type: ADME, organism-based; details: in vivo
[5] = Lipophilicity, log D of compound at pH 7.4 byHPLC method; type: physicochemical; details: buffer
[6] = Microsomal metabolic stability in dog liver microsomes assessed as half life; type: ADME, Canis lupus familiaris, Microsome
[7] = Oral bioavailability in male Sprague-Dawley rat at 10 mg/kg measured upto 24 hrs upto 24 hrs by LC-MS/MS analysis; type: ADME, organism-based; details: in vivo
Cytochrome P450 2D6 = Cytochrome P450 2D6 (Homo sapiens, UniProt P10635); assay: Inhibition of CYP2D6 (unknown origin); type: ADME
Cytochrome P450 2D6, sequence (P10635 whole entry): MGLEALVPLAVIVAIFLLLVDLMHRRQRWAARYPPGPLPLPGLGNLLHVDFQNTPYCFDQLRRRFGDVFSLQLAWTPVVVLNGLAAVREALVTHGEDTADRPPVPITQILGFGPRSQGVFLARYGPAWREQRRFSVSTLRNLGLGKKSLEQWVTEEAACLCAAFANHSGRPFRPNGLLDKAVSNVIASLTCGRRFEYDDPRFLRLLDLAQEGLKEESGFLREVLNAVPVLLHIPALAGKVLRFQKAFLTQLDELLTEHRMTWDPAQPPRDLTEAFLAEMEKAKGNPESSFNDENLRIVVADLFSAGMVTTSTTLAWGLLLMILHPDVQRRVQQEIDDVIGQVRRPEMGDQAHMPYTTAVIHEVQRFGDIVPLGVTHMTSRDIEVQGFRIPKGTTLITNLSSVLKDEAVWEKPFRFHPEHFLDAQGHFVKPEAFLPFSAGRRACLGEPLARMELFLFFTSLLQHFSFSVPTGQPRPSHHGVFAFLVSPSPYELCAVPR

[8] = AUC (0 to infinity) in male ICR mouse at 10 mg/kg, po and 2 mg/kg, iv measured upto 24 hrs; type: ADME, organism-based; details: in vivo
[9] = AUCinf in beagle dog at 2 mg/kg, iv measured upto 24 hrs upto 24 hrs by LC-MS/MS analysis; type: ADME, organism-based, Canis lupus familiaris; details: in vivo
[10] = Cmax in male ICR mouse at 10 mg/kg, po measured upto 24 hrs by LC-MS/MS analysis; type: ADME, organism-based; details: in vivo
[11] = Plasma protein binding in human assessed as unbound fraction; type: ADME, cell-free
[12] = Plasma protein binding in mouse assessed as unbound fraction; type: ADME, cell-free
[13] = Volume of distribution at steady state in beagle dog at 2 mg/kg, iv measured upto 24 hrs upto 24 hrs by LC-MS/MS analysis; type: ADME, organism-based, Canis lupus familiaris; details: in vivo, read-out: Vdss
[14] = Microsomal metabolic stability in mouse liver microsomes assessed as half life; type: ADME, Microsome
[15] = Microsomal metabolic stability in mouse liver microsomes assessed as clearance; type: ADME, Microsome; details: read-out: CLH
HCT-116 = assay: Antiproliferative activity against wild type human HCT-116 cells measured after 5 days by CTG assay; type: functional, cell-based; details: HCT-116, 120 h
[16] = Cmax in beagle dog at 10 mg/kg, po measured upto 24 hrs upto 24 hrs by LC-MS/MS analysis; type: ADME, organism-based, Canis lupus familiaris; details: in vivo
[17] = Dissociation constant, pKa of compound; type: physicochemical
[18] = Half life in male ICR mouse at 10 mg/kg, po measured upto 24 hrs by LC-MS/MS analysis; type: ADME, organism-based; details: in vivo
[19] = Plasma protein binding in dog assessed as unbound fraction; type: ADME, cell-free, Canis lupus familiaris
Cytochrome P450 2C8 = biological target: T2, Cytochrome P450 2C8 (Homo sapiens, UniProt P10632); assay: Inhibition of CYP2C8 (unknown origin); type: ADME
T2 sequence (P10632 whole entry): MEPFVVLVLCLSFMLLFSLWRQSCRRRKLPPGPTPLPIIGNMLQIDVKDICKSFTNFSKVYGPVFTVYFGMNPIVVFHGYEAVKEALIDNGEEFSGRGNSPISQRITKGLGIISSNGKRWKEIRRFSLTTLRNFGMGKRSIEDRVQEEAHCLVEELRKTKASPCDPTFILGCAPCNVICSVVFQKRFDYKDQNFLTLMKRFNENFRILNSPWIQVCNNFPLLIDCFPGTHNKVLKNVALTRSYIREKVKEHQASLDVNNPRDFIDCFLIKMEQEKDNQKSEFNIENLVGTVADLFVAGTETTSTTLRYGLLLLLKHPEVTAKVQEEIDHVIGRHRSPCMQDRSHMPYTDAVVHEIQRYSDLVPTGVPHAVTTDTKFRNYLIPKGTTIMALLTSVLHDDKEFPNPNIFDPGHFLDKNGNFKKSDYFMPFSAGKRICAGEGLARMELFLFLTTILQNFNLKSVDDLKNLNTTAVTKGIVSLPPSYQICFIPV

[20] = Half life in male Sprague-Dawley rat at 10 mg/kg, po measured upto 24 hrs upto 24 hrs by LC-MS/MS analysis; type: ADME, organism-based; details: in vivo
[21] = biological target: Voltage-gated inwardly rectifying potassium channel KCNH2 (Homo sapiens, UniProt Q12809); assay: Inhibition of hERG; type: toxicity
Voltage-gated inwardly rectifying potassium channel KCNH2, sequence (Q12809 whole entry): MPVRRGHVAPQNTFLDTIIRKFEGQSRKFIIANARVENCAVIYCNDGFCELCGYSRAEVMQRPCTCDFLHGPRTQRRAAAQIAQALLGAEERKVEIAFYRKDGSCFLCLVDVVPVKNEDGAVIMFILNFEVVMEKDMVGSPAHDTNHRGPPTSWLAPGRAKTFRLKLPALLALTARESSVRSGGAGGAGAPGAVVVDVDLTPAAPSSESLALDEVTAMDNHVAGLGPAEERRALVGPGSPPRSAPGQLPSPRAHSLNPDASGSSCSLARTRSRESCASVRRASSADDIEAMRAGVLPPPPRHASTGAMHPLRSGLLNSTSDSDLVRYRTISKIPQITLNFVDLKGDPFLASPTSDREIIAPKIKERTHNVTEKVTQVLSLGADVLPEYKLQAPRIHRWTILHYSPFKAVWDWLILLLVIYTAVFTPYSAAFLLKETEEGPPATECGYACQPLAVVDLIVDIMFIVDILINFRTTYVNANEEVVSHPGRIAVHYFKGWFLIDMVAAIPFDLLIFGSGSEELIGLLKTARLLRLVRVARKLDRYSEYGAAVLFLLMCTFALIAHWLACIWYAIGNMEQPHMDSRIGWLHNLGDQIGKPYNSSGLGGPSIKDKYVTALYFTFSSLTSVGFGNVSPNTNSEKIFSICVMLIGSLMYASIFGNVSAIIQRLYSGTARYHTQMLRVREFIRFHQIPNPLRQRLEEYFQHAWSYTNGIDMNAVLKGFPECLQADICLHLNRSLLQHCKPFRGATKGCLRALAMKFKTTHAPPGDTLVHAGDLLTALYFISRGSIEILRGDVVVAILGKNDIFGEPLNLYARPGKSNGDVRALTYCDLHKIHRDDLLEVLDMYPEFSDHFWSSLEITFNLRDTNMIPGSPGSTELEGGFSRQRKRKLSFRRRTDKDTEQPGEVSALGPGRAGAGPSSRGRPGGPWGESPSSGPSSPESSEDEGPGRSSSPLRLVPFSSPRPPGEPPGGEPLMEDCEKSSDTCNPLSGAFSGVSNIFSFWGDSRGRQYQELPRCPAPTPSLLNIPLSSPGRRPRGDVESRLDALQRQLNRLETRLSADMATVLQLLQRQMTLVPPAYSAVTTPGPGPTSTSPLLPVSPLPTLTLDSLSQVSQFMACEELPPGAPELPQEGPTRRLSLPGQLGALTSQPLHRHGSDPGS

[22] = Cmax in male Sprague-Dawley rat at 10 mg/kg, po measured upto 24 hrs upto 24 hrs by LC-MS/MS analysis; type: ADME, organism-based; details: in vivo
[23] = Clearance rate in beagle dog at 2 mg/kg, iv measured upto 24 hrs upto 24 hrs by LC-MS/MS analysis; type: ADME, organism-based, Canis lupus familiaris; details: in vivo
[24] = AUCinf in male ICR mouse at 10 mg/kg, po measured upto 24 hrs by LC-MS/MS analysis; type: ADME, organism-based; details: in vivo
[25] = Solubility of the compound in pH 7.4 phosphate buffer; type: physicochemical
[26] = Selectivity index, ratio of IC50 for antiproliferative activity against wild type human HCT-116 cells to IC50 for antiproliferative activity against MTAP-knock out human HCT-116 cells
[27] = biological target: T1, S-adenosylmethionine synthase isoform type-2; assay: Inhibition of MAT2A (unknown origin) assessed as release of inorganic phosphate using ATP/L-methionine pre-incubated for 30 mins followed by substrate addition measured after 2.5 hrs by colorimetric assay
[28] = Microsomal metabolic stability in human liver microsomes assessed as half life; type: ADME, Microsome
[29] = Hepatic metabolic stability in dog hepatocyte assessed as half life; type: ADME, cell-based, Canis lupus familiaris; details: hepatocytes
[30] = Clearance rate in male ICR mouse at 2 mg/kg, iv measured upto 24 hrs by LC-MS/MS analysis; type: ADME, organism-based; details: in vivo
[31] = Efflux ratio of apparent permeability in human Caco-2 cells; type: ADME, cell-based
[32] = Genotoxicity in Salmonella typhimurium TA98; type: toxicity; details: salmonella enterica subsp. enterica serovar typhimurium
[33] = Solubility of the compound in FaSSIF; type: physicochemical
[34] = Volume of distribution at steady state in male ICR mouse at 10 mg/kg, po and 2 mg/kg, iv measured upto 24 hrs; type: ADME, organism-based; details: in vivo
[35] = Lipophilicity, log P of the compound; type: physicochemical; details: octanol/water
[36] = Microsomal metabolic stability in human liver microsomes assessed as clearance; type: ADME, Microsome; details: read-out: CLH
[37] = AUCinf in male Sprague-Dawley rat at 2 mg/kg, iv measured upto 24 hrs upto 24 hrs by LC-MS/MS analysis; type: ADME, organism-based; details: in vivo

Row | Structure (SMILES) | IC50 [1] | Activity [2] | solubility [3] | t1/2 [4] | logD [5] | half-life [6] | IC50 (Cytochrome P450 2D6) | AUC(0-inf) [8] | AUC(0-inf) [9] | Cmax [10] | fraction unbound [11] | fraction unbound [12] | Vd [13] | half-life [14] | CLint scaled [15] | IC50 (HCT-116) | Cmax [16] | pKa [17] | half-life [18] | fraction unbound [19] | other results
1 | [2H]C([2H])([2H])NC1=NC(=O)[C@]2(CCc3ncccc32)c2cc(C(C)(F)F)ccc21 | > 3 µM | Non-toxic | 79.9 µM (≈ 27.5 µg/mL) | 2.03 h | 1.59 | > 3.1 h | > 10 µM | 24900 ng·h/mL | 1860 ng·h/mL | 5820 ng/mL | 0.676 | 0.345 | 1.14 L/kg | > 2.46 h | 37 mL/min/kg | > 10 µM | 2140 ng/mL | 4.9 | 2.37 h | 0.456 | bioavailability ([7]; male, Sprague-Dawley): 135%; IC50 (Cytochrome P450 2C8): > 10 µM; half-life [20]: 2.35 h; IC50 [21]: > 40 µM; Cmax [22]: 6100 ng/mL; clearance [23]: 15.3 mL/min/kg; AUC(0-inf) [24]: 24900 ng·h/mL; solubility [25]: 174 µM (≈ 59.9 µg/mL); Selectivity Index [26]: >181; IC50 [27]: 0.004 µM; half-life [28]: > 3.1 h; half-life [29]: > 3.61 h; clearance [30]: 9.12 mL/min/kg; efflux ratio [31]: 5.27; Activity [32]: Non-toxic; solubility [33]: 208 µM (≈ 71.6 µg/mL); Vdss [34]: 1.53 L/kg; logP [35]: 1.65; CLint scaled [36]: < 9.3 mL/min/kg; AUC ([37]; iv, 2 mg/kg, 24 h): 2212 ng·h/mL
2 | [2H]C([2H])([2H])NC1=NC(=O)[C@]2(CCc3ncccc32)c2cc(C(F)(F)F)ccc21 | > 3 µM | Non-toxic | 30.9 µM (≈ 10.8 µg/mL) | 2.35 h | 1.81 | > 3.1 h | > 10 µM | 39600 ng·h/mL | 2610 ng·h/mL | 5420 ng/mL | 0.758 | 0.276 | 1.14 L/kg | > 3.1 h | < 29.3 mL/min/kg | 0.68 µM | 1660 ng/mL | 4.7 | 2.19 h | 0.497 | F ([7]; po, 10 mg/kg, 24 h): 171%; IC50 (Cytochrome P450 2C8): > 10 µM; half-life [20]: 2.4 h; IC50 [21]: > 40 µM; Cmax [22]: 8520 ng/mL; clearance [23]: 6.95 mL/min/kg; AUC(0-inf) [24]: 35800 ng·h/mL; solubility [25]: 173 µM (≈ 60.3 µg/mL); Selectivity Index [26]: 20; IC50 [27]: 0.004 µM; half-life [28]: > 3.1 h; half-life [29]: > 3.61 h; clearance [30]: 7.98 mL/min/kg; efflux ratio [31]: 1.95; Activity [32]: Non-toxic; solubility [33]: 207 µM (≈ 72.1 µg/mL); Vdss [34]: 1.7 L/kg; logP [35]: 1.85; CLint scaled [36]: < 9.3 mL/min/kg; AUC(0-inf) ([37]; male, Sprague-Dawley): 4990 ng·h/mL
